Earlier results as cited in patent publication US20030088889A1, “Enhancing biological activity of plants” (priority 2002, published 2003).

Legend:
estrogen receptor = molecular target: T1, estrogen receptor (Homo sapiens, UniProt P03372)
T1 sequence (P03372 1-595): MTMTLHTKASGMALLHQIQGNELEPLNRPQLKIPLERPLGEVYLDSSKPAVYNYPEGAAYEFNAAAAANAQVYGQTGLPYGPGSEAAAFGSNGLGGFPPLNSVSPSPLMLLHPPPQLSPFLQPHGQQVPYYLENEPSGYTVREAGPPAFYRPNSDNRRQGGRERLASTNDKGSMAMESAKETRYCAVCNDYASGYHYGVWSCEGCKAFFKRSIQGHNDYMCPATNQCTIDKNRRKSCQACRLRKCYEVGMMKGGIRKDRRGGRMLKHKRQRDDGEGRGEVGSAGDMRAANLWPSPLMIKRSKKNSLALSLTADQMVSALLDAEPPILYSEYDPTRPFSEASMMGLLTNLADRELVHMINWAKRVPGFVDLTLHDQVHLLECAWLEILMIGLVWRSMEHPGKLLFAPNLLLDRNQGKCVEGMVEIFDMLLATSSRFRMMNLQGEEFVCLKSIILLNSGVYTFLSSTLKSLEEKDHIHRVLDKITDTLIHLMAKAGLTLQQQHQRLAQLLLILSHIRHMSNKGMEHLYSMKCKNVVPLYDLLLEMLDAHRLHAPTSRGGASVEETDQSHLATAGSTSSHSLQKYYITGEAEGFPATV

[1] = system: neuronal reuptake of monoamines and amino acids

Molecule | affinity to the estrogen receptor (estrogen receptor) | inhibition of neuronal reuptake of monoamines and amino acids [1]
O=c1cc(-c2ccc(O)c(-c3c(O)cc(O)c4c(=O)cc(-c5ccc(O)cc5)oc34)c2)oc2cc(O)cc(O)c12 [biapigenin] | weak affinity | –
hyperforin | – | potently inhibit
